# Where a SMILES comes first, the peptide text is derived from it. Bridges are numbered along the chain shown (N, C = ends). Where no end group is shown, it is not given here.
# What was measured:
# TNFα production = details: stimulated monocytes; by promoting TNFα mRNA degradation; cited from earlier work
# From the text: (§1) A range of biologics targeting TNFα have been licensed for the treatment of various inflammatory diseases, such as rheumatoid arthritis and Crohn’s disease. Although these agents have high potency and specificity, they are limited by their high production costs and potential immunogenicity. […] Also, their large molecular weight and low oral stability means their administration is only feasible through injection [[12 ...
# TNFα [1] = details: cited from earlier work
# Method: Small molecule with anti-TNFα activity with compact 3D conformations containing trifluoromethylphenyl indole and chromone moieties have previously been designed. These compounds bind with high affinity (IC50 = 13 μM) to a hydrophobic binding pocket formed by six tyrosine residues (Y59, Y119 and Y151 from chain A and B) at the interface of TNFα dimer. Alternative binding pockets that bind small molecules have also been identified from the predicted TNFα-TNFR1 complex and these involve the residues H66, L67 and L71 of TNFR1 and residues R82, F90 and F127 in TNFα [18]. Recently, a small ...
# HEK-Blue TNFα cells = details: 24 h, OD 540 nm, at the concentration used to test anti-TNFα activity, one duplicate
# Method: Therefore, this can be used as preliminary data for further biological evaluations.
# This assay was performed with one duplicate, and the error bars show standard error.
# The Vybrant®® MTT assay (Thermo Fisher Scientific) was performed following the manufacturer protocol. In this assay, cell permeable tetrazolium dye (yellow) was […] in viable cells to yield the water-insoluble formazan (purple) after incubation with HEK-TNFα cells. Formazan was then solubilised and quantified by measuring the UV absorbance at 540 nm.
# recombinant human TNFα = molecular target: T1, recombinant human TNFα (Homo sapiens, UniProt P01375); assay: HEK-Blue TNFα sensor cell assay (NF-ĸB-induced SEAP reporter); type: cell-based
# T1 construct: purchased InvivoGen
# Method: In the assay, the cells are transfected with a secretory alkaline phosphatase reporter gene which is downstream of the NF-ĸB promoter and expressed in response to TNFα receptor activation. The alkaline phosphatase activity was then quantified by measuring the absorbance (λ = 620 nm) of coloured substrate. […] Activation of HEK-Blue TNFα cells by 1 ng/mL of human TNFα (InvivoGen) in the presence and absence of anti-hTNFα antibody (InvivoGen) were used as positive and negative controls in the anti-TNFα assay (Figure 3).
# Peptides were dissolved in DMSO and solutions were diluted with the cell culture media so the final concentration of DMSO is 1%. Blank experiments with 1% DMSO were carried out.
# TNFα sensor cells (HEK-Blue) were grown in Dulbecco’s Modified Eagle’s medium (DMEM) containing 4.5 g/L glucose and supplemented with 10% [v/v] heat-inactivated foetal bovine serum, 2 mM L-glutamine, 100 μg/mL normocin, 50 U/mL penicillin and 50 μg/mL streptomycin. Selective antibiotics added to the culture medium include 100 μg/mL zeocin and 1 μg/mL puromycin and avoided in initial cultures (first 2 passages). Maintenance cultures were kept in T-75 cell culture flasks and incubated in humidified incubator with 5% [v/v] […]
# can then be quantified in cells supernatant (20 μL) by the reaction with 180 µL of QUANTI‐
# Blue™, a reagent that turns from purple to blue in the presence of SEAP. Quantification of […]
# [2] = qualitative; reason for NMR in methanol-d3
# TNFα [3] = tested on: TNFα; set-up: method as in PMID 7756262; details: K562 cells, 125I-labelled TNFα; cited from earlier work
# [4] = tested on: menin-MLL protein–protein interaction; details: cited from earlier work
# From the text: (§2) This was achieved by producing a cyclic peptide with higher target specificity compared to small molecules and low potential of immunogenicity when compared with biologics. Protein loops are often involved in the biomolecular recognition of proteins. Loop peptidomimetics have previously been introduced as a new class of bioactive agents. The ...
# [5] = tested on: protein kinase 2 regulatory subunit (CK2β) / catalytic subunit interaction; details: cited from earlier work
# From the text: as §2
# [6] = cited from earlier work
# From the text: as §1
# [7] = molecular target: recombinant human tumour necrosis factor alpha (TNFα) (human) (UniProt P01375)
# recombinant human tumour necrosis factor alpha (TNFα) (human), sequence (P01375 77-233): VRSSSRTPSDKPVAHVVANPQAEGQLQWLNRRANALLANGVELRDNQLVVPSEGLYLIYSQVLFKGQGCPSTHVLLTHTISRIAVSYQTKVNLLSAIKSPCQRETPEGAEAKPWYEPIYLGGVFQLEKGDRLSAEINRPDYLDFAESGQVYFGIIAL
# T1 sequence (P01375 77-233 limits assumed): as the sequence (P01375 77-233) above
molecule,measurement,setting,value
O=C1CCC(N2C(=O)c3ccccc3C2=O)C(=O)N1 (stereo not shown) [Thalidomide],effect on TNFα production,TNFα production,inhibits TNFα production
Cc1ccc(C)c(Cn2c(CO)nc3ccccc32)c1 [UCB-6876],effect on TNFα trimer in co-crystal structure,TNFα [1],change in the spatial arrangement of the TNFα trimer and a loss of its 3-fold symmetry
CC(C)C[C@@H]1NC(=O)[C@H](Cc2ccc(O)cc2)NC(=O)[C@H](CCC(N)=O)NC(=O)[C@H](CO)NC(=O)[C@H](Cc2c[nH]c3ccccc23)NC(=O)[C@@H](NC(=O)[C@@H](N)Cc2ccc(O)cc2)CSSC[C@@H](C(=O)N[C@@H](Cc2ccc(O)cc2)C(=O)O)NC1=O [WP9QY],cytotoxicity (MTT),HEK-Blue TNFα cells,no significant cytotoxicity
same,IC50,recombinant human TNFα,122 µM
CC(C)C[C@@H]1NC(=O)[C@H](CC(N)=O)NC(=O)[C@H](CCC(=O)O)NC(=O)[C@H](CO)NC(=O)[C@H](Cc2c[nH]c3ccccc23)NC(=O)[C@H](Cc2ccc(O)cc2)NC(=O)[C@H](Cc2c[nH]cn2)NC(=O)CNC(=O)[C@@H]2CCCN2C(=O)[C@H](CCC(N)=O)NC(=O)[C@H](Cc2ccccc2)NC1=O [compound 1] (cyclo(HYWSENLFQPG)),cytotoxicity (MTT),HEK-Blue TNFα cells,no significant cytotoxicity
same,concentration achieving inhibition of TNFα activity by 35%,"recombinant human TNFα; 35% inhibition, 1 ng/mL recombinant human TNFα, 24 h, 1% DMSO, absorbance 620 nm, duplicates",117.4 µM
same,solubility in water,[2],low solubility
Cc1ccc(C(=O)Nc2ccc(S(=O)(=O)O)c3cc(S(=O)(=O)O)cc(S(=O)(=O)O)c23)cc1NC(=O)c1cccc(NC(=O)Nc2cccc(C(=O)Nc3cc(C(=O)Nc4ccc(S(=O)(=O)O)c5cc(S(=O)(=O)O)cc(S(=O)(=O)O)c45)ccc3C)c2)c1 [suramin],effect on TNFα oligomer,TNFα [3],Deoligomerisation of TNFα
MCP-1,inhibition of menin-MLL interaction,[4],inhibitor of the menin-MLL protein–protein interaction
cyclo-GCRLYGFKIHGCG [cyclic peptide derived from the regulatory subunit (CK2β) of protein kinase 2],inhibition of CK2β interaction with catalytic subunit,[5],inhibits the interaction with the associated catalytic subunit
infliximab: large molecule biologic targeting TNFα,adverse reaction,[6],associated with development of infusion reaction
YCWSQYLCY (disulfide 2-8 (inferred)) [WP9QY],"concentration that inhibits TNFα activity by 35% in HEK-Blue TNFα sensor cells (NF-kB-driven secreted alkaline phosphatase), 1 ng/mL human TNFα, 24 h; the pair said to be blocked is TNFα with TNFR-1",[7],97.2 µM
HYWSENLFQPG (cyclised head to tail (N- to C-) via a proline-glycine linker) [cyclic peptide 1 (WP9 loop peptidomimetic 1)],"concentration that inhibits TNFα activity by 35% in HEK-Blue TNFα sensor cells (NF-kB-driven secreted alkaline phosphatase), 1 ng/mL human TNFα, 24 h; the pair said to be blocked is TNFα with TNFR-1",[7],117 µM

# From paper PMC7071015, “Structure-Based Design, Synthesis and Bioactivity of a New Anti-TNFα Cyclopeptide” (Molecules, 2020)
